Data taken from patent publication US20120321637A1, “COMBINATION CANCER THERAPY WITH HERV INHIBITION” (The Board of Regents of the University of Texas System, priority 2011, published 2012).

Assays:
A101D cell line = details: human, 48 h, 1000 µM
Experimental: The A101D cell line was treated with various combinations of PD98059 (P), 219476 (C), and AZT (A) for 48hrs after which the MTS assay was done.
CellTiter 96 Aqueous One Solution Cell Proliferation Assay (MTS, Promega) was used to measure total vial cells following manufacturer's instructions. 5,000 melanoma cells were seeded in each well of 96-well plates, and were grown for 24 hrs in media with 10% Fetal Bovine Serum (FBS). After that period, media were aspirated and various combinations of treatments were added to each well in media without serum. Based on dose-response analyses, the final concentrations used were: PD90895 at 25 μM; 219476 at 1 μM; AZT at 1000 μM. The plates were incubated for a period of 24 hrs, 48hrs, and 72 hrs, respectively. Then, the MTS solution was added to each well according to the manufacturers protocol. The plates were again incubated for 2-4 hrs, after which absorbance was measured at 490 nm. Data were analyzed and compared for treatment efficiency.

[1] = system: BRAF mutant metastatic melanomas; details: phase I clinical trial; cited from earlier work
melanoma = details: monotherapy; cited from earlier work

Cc1cn([C@H]2C[C@H](N=[N+]=[N-])[C@@H](CO)O2)c(=O)[nH]c1=O [AZT]
viability (A101D cell line): 87.4%

CCCS(=O)(=O)Nc1ccc(F)c(C(=O)c2c[nH]c3ncc(-c4ccc(Cl)cc4)cc23)c1F [PLX4032]
BRAF mutant metastatic melanomas regressed in response to treatment [1]: approximately 80%

CNC(=O)c1cc(Oc2ccc(NC(=O)Nc3ccc(Cl)c(C(F)(F)F)c3)cc2)ccn1 [sorafenib, 4-[4-[[4-chloro-3-(trifluoromethyl)phenyl]carbamoylamino]phenoxy]-N-methyl-pyridine-2-carboxamide]
clinical benefit in melanoma patients (melanoma): only shows marginal clinical benefit
